Twelve molecules from ChEMBL document CHEMBL5356930, “Small-molecule inhibitors of bacterial-producing metallo-β-lactamases: insights into their resistance mechanisms and biochemical analyses of their activities” (RSC Med Chem, 2023) can be followed below.

≈ marks a conversion by molar mass, not a printed value.

Data set [1] is described as follows: Cytotoxicity against human HEK293 cells incubated for 24 hrs by MTT assay. The format is toxicity, cell-based.
Data set [2] addresses T1, Metallo-beta-lactamase type 2 (Bacteria, UniProt C7C422). Description: Inhibition of bacterial NDM-1 (unknown origin) using nitrocefin as substrate.
For data set [3], the target named is T1, Metallo-beta-lactamase type 2. Description: Binding affinity to bacterial NDM-1 (unknown origin) using nitrocefin as substrate assessed as inhibition constant.
Data set [4] has as its system Enterobacteriaceae. Nature of the data set: Synergistic antibacterial activity against NDM-1-producing Carbapenem-resistant Enterobacteriaceae assessed as fractional inhibitory concentration index in presence of meropenem. The format is functional.
Data set [5] is described as follows: Binding affinity to bacterial Metallo-beta-lactamase IMP-1 (unknown origin) expressed in Escherichia coli BL21(DE3) cells assessed as inhibition constant. The arrangement: species or system Bacteria.
In data set [6] the test system is Escherichia coli. Description: Synergistic activity against IMP-1 producing engineered Escherichia coli NUBL-24 assessed as fractional inhibition concentration index incubated for 16 to 20 hrs in presence of meropenem by CLSI-based microdilution method. Particulars: time 16-20 hrs. The format is functional. (In general: Broth dilution looks for growth in wells or tubes with falling amounts of substance.)

A further data set relates to HeLa. Description: Cytotoxicity against human HeLa cells at >1000 uM incubated for 24 hrs by Celltiter assay relative to control. The format is toxicity, cell-based.
The test system of data set [7] is Escherichia coli. Description: Synergistic activity against IMP-1 producing Escherichia coli NUBL-24 infected in CD1 mouse assessed as death rescue at 100 mg/kg, ip measured for 7 days in presence of meropenem relative to control. The class given is functional. Particulars: time 7 day.
A short description of data set [8]: Binding affinity to bacterial Metallo-beta-lactamase VIM-2 (unknown origin) expressed in Escherichia coli BL21(DE3) cells assessed as inhibition constant. Also noted: species or system Bacteria.
For data set [9], the system named is Klebsiella pneumoniae. Description: Synergistic activity against NDM-1/VIM-1-producing Klebsiella pneumoniae MS5674 assessed as fractional inhibition concentration index in presence of meropenem by checkerboard assay. The format is functional.
In data set [10] the target is T1, Metallo-beta-lactamase type 2. Description: Inhibition of bacterial NDM-1 (unknown origin) using nitrocefin as substrate incubated for 10 mins followed by substrate addition by absorbance based assay.
Data set [11] deals with Escherichia coli. Nature of the data set: Antibacterial activity against NDM-1-producing Escherichia coli in presence of meropenem. The format is functional.
The target of data set [12] is T1, Metallo-beta-lactamase type 2. Description: Inhibition of bacterial NDM-1 (unknown origin).
For data set [13] the target is unchanged. Nature of the data set: Binding affinity to bacterial NDM-1 (unknown origin) assessed as inhibition constant.
Data set [14] is described as follows: Cytotoxicity against human HeLa cells. The format is toxicity, cell-based.
In a further data set the target is Beta-lactamase VIM-1 (Bacteria, UniProt Q8GDC1). Description: Binding affinity to bacterial Metallo-beta-lactamase VIM-1 (unknown origin) assessed as dissociation constant.
Data set [15] can be described thus: Inhibition of bacterial Metallo-beta-lactamase VIM-2 (unknown origin). Also noted: species or system Bacteria.
The target of data set [16] is Beta-lactamase VIM-1 (Bacteria) (UniProt Q8GDC1). Description: Inhibition of bacterial Metallo-beta-lactamase VIM-1 (unknown origin) at 100 uM relative to control.
A further data set relates to Bacteria. Nature of the data set: Inhibition of bacterial Metallo-beta-lactamase VIM-5 (unknown origin) at 100 uM relative to control.
Data set [17] can be described thus: Inhibition of Acinetobacter baumannii Metallo-beta-lactamase IMP-1.
The next data set deals with Acinetobacter baumannii. Description: Antibacterial activity against MBL-producing Acinetobacter baumannii assessed as diameter of inhibition zone in presence of imipenem. The class given is functional.
Data set [18] deals with Klebsiella pneumoniae. Description: Antibacterial activity against IMP-type producing Klebsiella pneumoniae LC 82 clinical isolate in presence of imipenem. The class given is functional.
The next data set concerns Enterobacter sp. Nature of the data set: Antibacterial activity against IMP-type producing Enterobacter sp. 42713 clinical isolate in presence of imipenem. The format is functional.
A further data set deals with Proteus mirabilis. Description: Antibacterial activity against IMP-type producing Proteus mirabilis UNC KPC 170 clinical isolate in presence of imipenem. The format is functional.
A short description of data set [19]: Binding affinity to bacterial Metallo-beta-lactamase IMP-1 (unknown origin) assessed as inhibition constant. The arrangement: species or system Bacteria.
The nature of data set [20]: Cytotoxicity against human HEK293 cells assessed as cell viability >533 uM relative to control. Particulars: read-out: Activity. The class given is toxicity, cell-based.
Data set [21] can be described thus: Cytotoxicity against mouse L929 cells assessed as cell viability >533 uM relative to control. Particulars: read-out: Activity. The class given is toxicity, cell-based.
The target in a further data set is Beta-lactamase NDM-1 (Escherichia coli, UniProt E5KIY2). Description: Inhibition of NDM-1 in Escherichia coli assessed as reduction in imipenem hydrolytic activity.
The target of data set [22] is Metallo-beta-lactamase VIM-2 (Pseudomonas aeruginosa, UniProt D1MEN9). Nature of the data set: Binding affinity to Metallo-beta-lactamase VIM-2 assessed as inhibition constant.
Data set [23] deals with T1, Metallo-beta-lactamase type 2. Nature of the data set: Inhibition of wildtype bacterial NDM-1 (unknown origin) expressed in Escherichia coli BL21(DE3) cells using nitrocefin as substrate incubated for 20 mins by absorbance based assay.
Data set [24] shares this target. Nature of the data set: Binding affinity to wildtype bacterial NDM-1 (unknown origin) expressed in Escherichia coli BL21(DE3) cells assessed as dissociation constant.
For data set [25], the system named is Enterobacteriaceae. Description: Antibacterial activity against NDM-1-producing Enterobacteriaceae. The class given is functional.
Data set [26] is described as follows: Acute toxicity in iv dosed CD1 mouse assessed as lethal dose measured for 7 days. The class given is organism-based. Particulars: in vivo, time 7 day.
Data set [27] in a line: Acute toxicity in ip dosed CD1 mouse assessed as lethal dose measured for 7 days. The class given is organism-based. Particulars: in vivo, time 7 day.
Data set [28] deals with Angiotensin-converting enzyme (Homo sapiens, UniProt P12821). Nature of the data set: Inhibition of angiotensin-converting enzyme (unknown origin).
Data set [29] has as its system Escherichia coli. Nature of the data set: Synergistic activity against VIM-2-producing Escherichia coli assessed as fractional inhibition concentration index in presence of ceftazidime by checkerboard assay. The class given is functional.
The nature of data set [30]: Cytotoxicity against human HeLa cells incubated for 24 hrs by PrestoBlue reagent based assay. The format is toxicity, cell-based.
A short description of data set [31]: Inhibition of bacterial Metallo-beta-lactamase GIM-1 using nitrocefin as substrate. The arrangement: species or system Bacteria.

T1 sequence (C7C422 whole entry): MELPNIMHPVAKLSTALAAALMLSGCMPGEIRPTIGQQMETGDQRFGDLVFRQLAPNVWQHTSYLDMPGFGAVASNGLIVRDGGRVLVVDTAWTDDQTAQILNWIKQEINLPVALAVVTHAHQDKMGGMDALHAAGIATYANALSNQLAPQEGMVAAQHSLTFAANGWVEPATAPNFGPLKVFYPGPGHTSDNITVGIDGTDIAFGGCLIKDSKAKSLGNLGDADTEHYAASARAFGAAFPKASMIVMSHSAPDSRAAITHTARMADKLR
Angiotensin-converting enzyme, sequence (P12821 whole entry): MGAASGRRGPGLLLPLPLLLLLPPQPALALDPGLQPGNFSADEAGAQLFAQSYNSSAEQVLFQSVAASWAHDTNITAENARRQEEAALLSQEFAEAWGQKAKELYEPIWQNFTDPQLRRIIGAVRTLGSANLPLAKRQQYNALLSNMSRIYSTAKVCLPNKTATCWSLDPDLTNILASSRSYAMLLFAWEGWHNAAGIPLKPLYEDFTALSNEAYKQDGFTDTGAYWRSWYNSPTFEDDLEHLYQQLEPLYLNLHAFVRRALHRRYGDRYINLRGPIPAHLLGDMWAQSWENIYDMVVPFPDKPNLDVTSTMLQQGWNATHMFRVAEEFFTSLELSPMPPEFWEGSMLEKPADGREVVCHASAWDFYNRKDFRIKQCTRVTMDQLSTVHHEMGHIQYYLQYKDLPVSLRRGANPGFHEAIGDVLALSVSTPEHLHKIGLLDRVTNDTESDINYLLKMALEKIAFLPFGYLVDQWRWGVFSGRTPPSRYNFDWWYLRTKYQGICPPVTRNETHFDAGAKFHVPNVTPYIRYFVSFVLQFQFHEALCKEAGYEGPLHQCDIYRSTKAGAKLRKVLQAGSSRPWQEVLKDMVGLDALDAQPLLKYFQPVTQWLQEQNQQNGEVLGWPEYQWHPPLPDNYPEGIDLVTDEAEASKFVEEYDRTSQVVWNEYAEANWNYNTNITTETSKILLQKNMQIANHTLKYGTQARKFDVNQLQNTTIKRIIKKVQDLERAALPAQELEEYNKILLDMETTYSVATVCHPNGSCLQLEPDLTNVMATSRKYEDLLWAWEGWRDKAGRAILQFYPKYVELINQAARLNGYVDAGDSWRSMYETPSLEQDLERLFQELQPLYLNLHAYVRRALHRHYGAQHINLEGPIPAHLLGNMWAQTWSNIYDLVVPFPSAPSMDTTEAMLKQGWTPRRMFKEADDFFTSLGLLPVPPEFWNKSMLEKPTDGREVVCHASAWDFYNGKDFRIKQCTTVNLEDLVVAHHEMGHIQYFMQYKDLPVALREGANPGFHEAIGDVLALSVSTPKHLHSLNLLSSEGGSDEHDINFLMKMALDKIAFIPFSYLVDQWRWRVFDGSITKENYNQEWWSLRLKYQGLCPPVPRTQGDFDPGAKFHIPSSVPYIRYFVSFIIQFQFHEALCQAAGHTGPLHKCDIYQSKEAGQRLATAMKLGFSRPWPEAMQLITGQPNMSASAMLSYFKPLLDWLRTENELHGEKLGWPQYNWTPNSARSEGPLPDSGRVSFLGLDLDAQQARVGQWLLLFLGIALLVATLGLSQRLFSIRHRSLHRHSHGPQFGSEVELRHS
Beta-lactamase NDM-1, sequence (E5KIY2 whole entry): as the sequence (C7C422 whole entry) above

As for `COC(=O)[C@H]1CN(C(=O)CN(Cc2ccccn2)Cc2ccccn2)C[C@@H]1c1ccc(OCc2ccccc2)c(OC)c1` (racemic), in data set [1], the concentration for half-maximal inhibition (IC50) at 24 h is more than 128 µM. This molecule also registered a concentration for half-maximal inhibition (IC50) in [2] of 51 µM. Also, in [3], the Ki worked out at 4.6 µM. In addition, the “fractional inhibitory concentration index (FICI)” value in the data set with Enterobacteriaceae [4] was 0.01.
Turning to `CCc1c(C(=O)O)c(S(N)(=O)=O)c(CC)n1C`, the values for the Ki in data set [5] and in [8] were 0.26 µM and 0.02 µM, respectively. Also, the “fractional inhibitory concentration index (FICI)” value was found to be 0.26 with Escherichia coli [6] and 0.05 in the data set on Klebsiella pneumoniae [9]. Also, the Activity in the data set with HeLa is recorded as more than 50%; in the data set on Escherichia coli [7], 100%.
With `O=C(O)c1cccc2oc(-c3ccc4cc(OCc5ccccc5)ccc4c3O)nc12`, the IC50 in data set [10] was 0.38 µM.
With `CC(C)c1cc2c(c(O)c1O)[C@@]1(C(=O)O)CCCC(C)(C)[C@@H]1CC2` [CARNOSIC ACID], the minimal inhibitory concentration (MIC) with Escherichia coli [11] came out at 4 mg/L.
With `CN1CCN(C(=S)N/N=C/c2ccccc2O)CC1`, the IC50 in data set [12] was 0.302 µM; in data set [14], more than 64 mg/L. In addition, the Ki in data set [13] worked out at 440 µM.
In the case of `O=C1C(SCCCS)CCN1c1ccccc1` (stereo not given), the dissociation constant (Kd) at Beta-lactamase VIM-1 is less than 0.88 µM.
In data set [15], `Brc1ccc(-c2nnc3n2CCCS3)cc1` returned an IC50 of 38.4 µM. For the same molecule, the inhibition in data set [16] stood at 23%; with Bacteria, 33%.
The molecule `Oc1ccc(Br)cc1/C=N/c1cccnc1/N=C/c1cc(Br)ccc1O` yielded a concentration for half-maximal inhibition (IC50) in data set [17] of 83.7 µM. Moreover, the “diameter of the inhibition zone (DIZ)” value with Acinetobacter baumannii worked out at 25 mm.
Consider `CCOC(=O)[C@]1(CS)N[C@@H](C(=O)O)C(C)(C)S1`, for which the results for the MIC in the data set on Klebsiella pneumoniae [18], in the data set on Enterobacter sp. and in the data set with Proteus mirabilis were 0.5 mg/L, 8 mg/L and 8 mg/L, respectively. Further, the inhibitory constant (Ki) in data set [19] is 2 µM; in data set [13] (read-out: Ki), 0.6 µM; in data set [22] it was 1.9 µM. In addition, in data set [20], the viability at 533 µM amounted to 85%. The viability in [21] was 85%. Also, the IC50 at Beta-lactamase NDM-1 stood at 10 µM.
In data set [23], `CC1=C[C@@]2(C)[C@@H](/C(C)=C/[C@]3(C)O[C@H](C)[C@@]4(C)O[C@H]43)[C@](C)([C@@H](O)[C@@H](C)C(=O)C(C)C)[C@H]2[C@]2(C)O[C@H]12` displayed an IC50 of 12.1 µM. Besides, the equilibrium dissociation constant (Kd) in data set [24] was determined as 11.8 µM. The molecule further gave an MIC50 against Enterobacteriaceae [25] of 32 µM (≈ 15.1 µg/mL).
On to `Cc1oc(C)c(S(N)(=O)=O)c1C(=O)O`, for which the Ki turned out to be 0.22 µM in data set [5] and 2.81 µM in data set [8]. Moreover, the “fractional inhibitory concentration index (FICI)” value is listed as 0.11 with Escherichia coli [6], 0.31 with Escherichia coli [29] and 0.19 with Klebsiella pneumoniae [9]. Moreover, the Activity in the data set with HeLa was more than 50%; in the data set with Escherichia coli [7], 90%. In addition, the values for the 50% lethal dose (LD50) at 168 h in data set [26] and in [27] were 246 mg/kg and more than 1000 mg/kg, respectively. The same molecule registered an IC50 in data set [28] of more than 1000 µM.
In the case of `COP(=O)(CCSC(C)=O)N(C)Cc1ccccn1` (racemic), the IC50 at 24 h in data set [30] was more than 500 µM. In [31], this molecule came in with an IC50 of 109 µM.

As a reminder, the IC50 is the concentration that gives 50% inhibition. As a reminder, the Ki is the equilibrium dissociation constant of an inhibitor or competing ligand from its target. A word on the MIC: it is the least concentration at which growth counts as inhibited. One may read the Kd as the constant that tells how readily two partners part at equilibrium. Broadly, the inhibition is the percentage by which the read-out fell short of the control. Higher therefore signals a response far below the control. Broadly, the MIC50 is the lowest concentration that inhibits either 50% of growth or 50% of the strains tested, depending on the study. The low end stands for higher susceptibility, the high end for lower susceptibility. By LD50 is commonly meant the dose at which mortality reaches 50%.
